Test results published in patent US20220267390A1, “MPS MODIFIED PEPTIDES AND USE THEREOF” (The Regents of the University of California, priority 2019, published 2022).
pKd: −log10 of the molar value. Where no end group is shown, it is not given here.

Key:
[1] = system: oncospheres derived from H292 cells; experiment: Sphere-forming assay, smoke-enriched oncospheres derived from H292 cells; type: cell-based
Description: FIG. 18A-18C: (FIG. 18A) Sphere-forming assays for evaluating the inhibitory effect of the MPS peptide on smoke-mediated stemness. (FIG. 18B) Quantification of the number and size of oncospheres. (FIG. 18C) RT-qPCR analyses of mRNA expression in the above oncospheres.
Targeting the MARCKS PSD is associated with inhibition of stem-like cell properties. In light of the importance of the PSD in the functionality of MARCKS protein, Applicant designed a 25-mer MPS peptide to mimic the MARCKS phosphorylation site domain (PSD). […] Applicant's initial studies have shown that elevation of phospho-MARCKS in lung cancer spheres acted in parallel with increased stemness markers, such as CD133, Oct3/4, SOX2 and Nanog (data not included). The oncospheres were derived from high MARCKS-expressing lung cancer cell lines (H1975 and CL1-5) and primary lung cancer cells (LG704 and LC3: pleural effusion cells isolated from patients with advanced stage) in non-adherent serum-free culture conditions as described previously^30-32. Flow cytometry confirmed that ˜80% of LG704 oncosphere cells are CD133-positive, a major lung CSCs marker. […] The sphere-forming ability was assessed by counting the number and size of tumor spheres (oncospheres) under a microscope. […]

[2] = system: bleomycin-induced pulmonary fibrosis; experiment: Bleomycin-induced pulmonary fibrosis; type: in vivo, C57BL/6J mice; conditions: 28 mg/kg i.p. every other day, Masson's trichrome staining after 22 days
Method: FIGS. 20A and 20B show suppressive effects of MPS peptide on pulmonary fibrosis in vivo. C57BL/6 mice were intraperitoneally given either PBS, nintedanib (28 mg/kg), MPS peptide (28 mg/kg) or MPS-12042 (7 mg/kg) at the dosage of every two days after 9 days of intratracheal exposure with one shot of saline or bleomycin (33 μg in […] of saline, n=5). (FIG. 20A) Representative Masson trichrome and immunohistochemical staining of phospho-MARCKS (Ser159/163) and phospho-AKT (Ser473) (n=6). (FIG. 20B) Hydroxyproline level in the left lung of mice as described above was determined by a hydroxyproline ELISA assay (mean±SD, *p<0.05).
MPS peptide potentially serves as an antifibrotic agent in bleomycin-induced pulmonary fibrosis. Bleomycin remains the standard agent for induction of experimental pulmonary fibrosis in animals^23. Thus, 8-week-old female C57BL/6J mice received saline or bleomycin intratracheally (33 μg in […] of saline) as previously described^23. Lung specimens from bleomycin- or saline-treated mice were collected and subjected to immunofluorescence staining. […] Next, lung fibroblast cells isolated from saline- or bleomycin-treated mice (two mice fibroblast cell lines were gifts from Dr. Sem H. Phan, University of Michigan School of Medicine, MI) were incubated with either 100 μM control or MPS peptide for 48 hours. […]

[3] = Kinetic assay: biolayer interferometry binding to biotin-labeled PIP2; conditions: 24° C., read-out: dissociation constant
Description: FIGS. 10A-10C: (FIG. 10A) The PIP2-binding motif (SEQ ID NO: 12) on the ? hosphorylation ? ite ? omain (PSD) of MARCKS. FIG. 10A discloses the MH domain as SEQ ID NO: 86). (FIG. 10B) Biolayer interferometry analysis of the binding of the MPS peptide to biotin-labeled PIP2. (FIG. 10C) PIP3 levels in IPF fibroblast cells with PBS or MPS treatment. * p<0.05 versus PBS (n=3).
Real-time binding of the peptide mimicking the phosphorylation site domain of MARCKS (MPS peptide, amino acids 151 to 175 from the wild-type MARCKS protein) to biotin-labeled PIP2 was evaluated using biolayer interferometry (BLI) on an Octet RED96 system (ForteBio) following the manufacturer's instructions. Briefly, the ligand, PIP2 labeled with biotin at the sn-1 position (1000 nM in ddH2O), was immobilized on Super Streptavidin (SSA) biosensors for 10 minutes. A binding assay was performed with the MPS analyte at various concentrations from 0 to 1000 nM in ddH2O. Association and dissociation were monitored for 5 minutes. Assays were performed at 24° C. Data were analyzed using Octet Data Analysis Software 7.0 (ForteBio).

pKd [3]: 7.75
Sequence: KKKKKRFSFKKSFKLSGFSFKKNKK [MPS peptide]
number and size of oncospheres [1]: inhibitory effects
expression of stemness genes ([1]; RT-qPCR): inhibitory effects
fibroblastic lesions and deposited extracellular matrix in the lungs [2]: decreases of fibroblastic lesions and deposited extracellular matrix
